In article PMC10055926:
Entries after “also recorded” stand apart in the source; their conditions may differ.

System: SARS-CoV-2 Omicron variant (B.1.1.529-BA.1)
Assay type: cell-based
Conditions: up to 20 µM; Omicron B.1.1.529-BA.1

Q: How did the “inhibitory activity against SARS-CoV-2 Omicron in HNEC ALI cultures (in words)” value turn out when C[C@H](NC(=O)[C@H](Cc1ccc(O)cc1)NC(=O)OCc1ccccc1)C(=O)C=[N+]=[N-] was run?
A: Its value is “no inhibitory activity; also recorded: unable to block entry”.
